Entries after “also recorded” stand apart in the source; their conditions may differ. Where a SMILES comes first, the peptide text is derived from it.
Legend:
[1] = molecular target: T1, human leukocyte elastase (hLE) (Homo sapiens, UniProt P08246); test: In vitro inhibition of hLE (cleavage of MeOSuc-AAPV-NA); assay type: biochemical; conditions: for Ki: hLE Ki [μM], Table 2, substrate MeOSuc-AAPV-NA 200 μM, pH 7.4, 37 C
T1 construct: Neutrophils (1.4 billion) were isolated from whole blood obtained from a single healthy laboratory donor; from tissue; host or cells: neutrophils from whole blood of a single healthy donor
T1 sequence (P08246 30-247 limits assumed): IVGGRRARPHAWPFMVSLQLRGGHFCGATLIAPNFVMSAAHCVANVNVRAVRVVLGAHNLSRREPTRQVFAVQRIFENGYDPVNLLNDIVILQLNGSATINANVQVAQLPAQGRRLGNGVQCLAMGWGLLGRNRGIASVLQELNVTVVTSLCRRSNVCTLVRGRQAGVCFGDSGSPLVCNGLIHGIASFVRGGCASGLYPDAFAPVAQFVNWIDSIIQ
Experimental: (§1) The enzymatic activity was assayed with MeOSuc-AAPV-NA for hLE determination and Suc-AAPF-NA for hCG determination (both in 100 mM Hepes buffer, pH 7.4, containing 0.05% of the […] detergent Brij-35). The activities of the individual enzymatic fractions were 100% free from cross-contamination. […] The fractions containing hLE and hCG were dialyzed each against 0.1% pyridinium acetate, pH 5.3, divided into 20 aliquots, lyophilized, and stored at −20 ° C. until use.
(v) Inhibition experiments with hLE: Peptides were dissolved in 100 mM Hepes buffer pH 7.4 containing 0.1% Brij-35 with 10%. DMSO to yield 300 μM solutions, which were used to make further dilutions with the same buffer, and 80 μL aliquots were added in duplicates to 96-well plates. The substrate, 600 μM MeOSuc-AAPV-NA in the same buffer with 5% DMSO, was added to each well in addition to the blank wells, and the plate was placed in the plate reader equilibrated to 37 C (Dynateck MR-6000). Lyophilized aliquots of hLE were dissolved in 1600 μL of 100 mM Hepes buffer without DMSO, and 80 μL of the enzyme solution was added to the peptides and substrate to initiate the reaction. […] The final volume was 240 μL containing: 5% DMSO, 1-100 μM of peptide, 200 μM substrate, and 0.75 μg (˜25 picomol) enzyme.
(viii) Calculations: For hLE, V is determined by fitting a linear equation to the first 6 time-points (10 min) of the kinetics data using the least squares method. […] Several inhibitor concentration in duplicates and two control wells were used to fit a linear equation to graphs of Vo/Vi−1 vs. [I] for each inhibitor using the least squares method (8 data points for each inhibitor). From calculating the error in the slope of the equation, the relative error for Ki was deduced:
Ki={slope*(1+[S]/Km)}^−1because Ki=[I]*{(1+[S]/Km)*(Vo/Vi−1)}^−1.
The hLE inhibitory capability of CRP-derived peptides was evaluated by inhibiting the enzymatic cleavage of MeOSuc-AAPV-NA as described in Materials and Methods (section v).

[2] = molecular target: T2, human leukocyte cathepsin G (hCG) (Homo sapiens, UniProt P08311); test: In vitro inhibition of hCG (cleavage of Suc-AAPF-NA); assay type: biochemical; conditions: for Ki: hCG Ki [μM], Table 2, substrate Suc-AAPF-NA 600 μM, pH 7.4
T2 construct: Neutrophils (1.4 billion) were isolated from whole blood obtained from a single healthy laboratory donor; from tissue; host or cells: neutrophils from whole blood of a single healthy donor
T2 sequence (P08311 21-243 limits assumed): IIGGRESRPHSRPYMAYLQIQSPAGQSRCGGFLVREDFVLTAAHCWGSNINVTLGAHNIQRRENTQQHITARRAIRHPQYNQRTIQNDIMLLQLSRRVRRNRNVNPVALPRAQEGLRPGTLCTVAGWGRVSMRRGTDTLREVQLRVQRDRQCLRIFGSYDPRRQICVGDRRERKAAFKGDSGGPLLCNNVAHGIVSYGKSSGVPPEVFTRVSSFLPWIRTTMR
Experimental: as §1
vi) Inhibition experiments with hCG: Similar conditions to hLE inhibition experiments were used except the substrate: 80 μL of 1.80 mM Suc-AAPF-NA. The enzyme was dissolved in 800 μL buffer, and the reaction was monitored every 6 min for 1 hour. The final volume was 240 μL containing: 5% DMSO, 1-100 μM peptide, 600 μM substrate, and 1.2 μg enzyme (about 40 picomol).
For hCG, V is determined by fitting a quadratic equation to the total kinetic data (60 min), using the least squares method and calculating V at t=0.
The hCG inhibitory capability of CRP-derived peptides was evaluated by inhibiting the enzymatic cleavage of Suc-AAPF-NA as described in Materials and Methods (section vi).

SMILES | hLE inhibitory activity (in words) [1] | Ki [1] [µM] | Ki [2] [µM] | hCG inhibitory activity (in words) [2]
CC[C@H](C)[C@H](N)C(=O)N[C@@H](Cc1ccccc1)C(=O)N[C@@H](Cc1c[nH]c2ccccc12)C(=O)N[C@@H](CO)C(=O)N[C@@H](CCCCN)C(=O)N[C@@H](CC(=O)O)C(=O)N[C@H](C(=O)NCC(=O)N[C@@H](Cc1ccc(O)cc1)C(=O)N[C@@H](CO)C(=O)N[C@@H](Cc1ccccc1)C(=O)N[C@H](C(=O)O)[C@@H](C)O)[C@@H](C)CC [Peptide 12, Ile-Phe-Trp-Ser-Lys-Asp-Ile-Gly-Tyr-Ser-Phe-Thr] (H-IFWSKDIGYSFT-OH) | totally abolished the inhibitory activity | > 200 | > 200 | –
CC[C@H](C)[C@H](NC(=O)[C@H](CC(=O)O)NC(=O)[C@H](CCCCN)NC(=O)[C@H](CO)NC(=O)[C@H](Cc1c[nH]c2ccccc12)NC(=O)[C@H](Cc1ccccc1)NC(=O)[C@@H](NC(=O)[C@H](CC(C)C)NC(=O)[C@@H](NC(=O)[C@@H](N)CCC(=O)O)[C@@H](C)CC)[C@@H](C)CC)C(=O)NCC(=O)N[C@@H](Cc1ccc(O)cc1)C(=O)O [Peptide 13, Glu-Ile-Leu-Ile-Phe-Trp-Ser-Lys-Asp-Ile-Gly-Tyr] (H-EILIFWSKDIGY-OH; N-terminus and C-terminus assumed) | diminished hLE inhibitory activity | – | – | diminished inhibitory activity
CC[C@H](C)[C@H](NC(=O)[C@H](CC(=O)O)NC(=O)[C@H](CCCCN)NC(=O)[C@H](CO)NC(=O)[C@H](Cc1c[nH]c2ccccc12)NC(=O)[C@H](Cc1ccccc1)NC(=O)[C@@H](NC(=O)[C@H](CC(C)C)NC(=O)[C@@H](NC(=O)[C@@H](N)CCC(=O)O)[C@@H](C)CC)[C@@H](C)CC)C(=O)O [Peptide 14, Glu-Ile-Leu-Ile-Phe-Trp-Ser-Lys-Asp-Ile] (H-EILIFWSKDI-OH; N-terminus and C-terminus assumed) | still retains significant inhibitory activity; also recorded: retain significant inhibitory activity | – | – | retain significant inhibitory activity
CC[C@H](C)[C@H](NC(=O)[C@H](CC(C)C)NC(=O)[C@@H](NC(=O)[C@@H](N)CCC(=O)O)[C@@H](C)CC)C(=O)N[C@@H](Cc1ccccc1)C(=O)N[C@@H](Cc1c[nH]c2ccccc12)C(=O)N[C@@H](CO)C(=O)N[C@@H](CCCCN)C(=O)O [Peptide 15, Glu-Ile-Leu-Ile-Phe-Trp-Ser-Lys] (H-EILIFWSK-OH) | total loss of inhibitory activity | > 200 | > 200 | –
CC[C@H](C)[C@H](NC(=O)[C@H](CC(=O)O)NC(=O)[C@H](CCCCN)NC(=O)[C@@H](N)CO)C(=O)NCC(=O)N[C@@H](Cc1ccc(O)cc1)C(=O)N[C@@H](CO)C(=O)O [Peptide 16, Ser-Lys-Asp-Ile-Gly-Tyr-Ser] (H-SKDIGYS-OH) | totally inactive | > 200 | > 200 | –
CC[C@H](C)[C@H](NC(=O)[C@H](CC(=O)O)NC(=O)[C@H](CCCCN)NC(=O)[C@H](CO)NC(=O)[C@H](Cc1c[nH]c2ccccc12)NC(=O)[C@H](Cc1ccccc1)NC(=O)[C@@H](NC(=O)[C@H](CC(C)C)NC(=O)[C@@H](NC(=O)[C@H](CCC(=O)O)NC(=O)[C@H](CC(N)=O)NC(=O)[C@H](CC(=O)O)NC(=O)[C@H](CCC(N)=O)NC(=O)[C@H](CCCNC(=N)N)NC(=O)[C@H](CCCCN)NC(=O)[C@@H](NC(=O)[C@H](C)N)[C@@H](C)O)[C@@H](C)CC)[C@@H](C)CC)C(=O)NCC(=O)N[C@@H](Cc1ccc(O)cc1)C(=O)N[C@@H](CO)C(=O)N[C@@H](Cc1ccccc1)C(=O)N[C@H](C(=O)N[C@H](C(=O)NCC(=O)NCC(=O)N[C@@H](CO)C(=O)N[C@@H](CCC(=O)O)C(=O)N[C@H](C(=O)N[C@@H](CC(C)C)C(=O)O)[C@@H](C)CC)C(C)C)[C@@H](C)O [Peptide 17] (H-ATKRQDNEILIFWSKDIGYSFTVGGSEIL-OH; N-terminus and C-terminus assumed) | reduced inhibitory activity; also recorded: reduction of inhibitory activity | – | 5.5 ± 1 | reduction of inhibitory activity
CC[C@H](C)[C@H](NC(=O)[C@H](CC(=O)O)NC(=O)[C@H](CCCN)NC(=O)[C@H](CO)NC(=O)[C@H](Cc1c[nH]c2ccccc12)NC(=O)[C@H](Cc1ccccc1)NC(=O)[C@@H](NC(=O)[C@H](CC(C)C)NC(=O)[C@@H](NC(=O)[C@@H](N)CCC(=O)O)[C@@H](C)CC)[C@@H](C)CC)C(=O)NCC(=O)N[C@@H](Cc1ccc(O)cc1)C(=O)N[C@@H](CO)C(=O)N[C@@H](Cc1ccccc1)C(=O)N[C@H](C(=O)O)[C@@H](C)O [Peptide 20, Glu-Ile-Leu-Ile-Phe-Trp-Ser-Orn-Asp-Ile-Gly-Tyr-Ser-Phe-Thr] (HELM PEPTIDE1{E.I.L.I.F.W.S.[Orn].D.I.G.Y.S.F.T}$$$$V2.0; N-terminus and C-terminus assumed) | retained the same level of inhibitory activity as peptide 6 | 0.25 ± 0.1 | 0.25 ± 0.05 | –
CC[C@H](C)[C@H](NC(=O)[C@H](CC(=O)O)NC(=O)[C@H](CCN)NC(=O)[C@H](CO)NC(=O)[C@H](Cc1c[nH]c2ccccc12)NC(=O)[C@H](Cc1ccccc1)NC(=O)[C@@H](NC(=O)[C@H](CC(C)C)NC(=O)[C@@H](NC(=O)[C@@H](N)CCC(=O)O)[C@@H](C)CC)[C@@H](C)CC)C(=O)NCC(=O)N[C@@H](Cc1ccc(O)cc1)C(=O)N[C@@H](CO)C(=O)N[C@@H](Cc1ccccc1)C(=O)N[C@H](C(=O)O)[C@@H](C)O [Peptide 21, Glu-Ile-Leu-Ile-Phe-Trp-Ser-DAB-Asp-Ile-Gly-Tyr-Ser-Phe-Thr] (HELM PEPTIDE1{E.I.L.I.F.W.S.[Dab].D.I.G.Y.S.F.T}$$$$V2.0; N-terminus and C-terminus assumed) | retained the same level of inhibitory activity as peptide 6 | 0.2 ± 0.05 | 0.85 ± 0.35 | –
CC[C@H](C)[C@H](NC(=O)[C@H](C)NC(=O)[C@H](CCCCN)NC(=O)[C@H](CO)NC(=O)[C@H](Cc1c[nH]c2ccccc12)NC(=O)[C@H](Cc1ccccc1)NC(=O)[C@@H](NC(=O)[C@H](CC(C)C)NC(=O)[C@@H](NC(=O)[C@@H](N)CCC(=O)O)[C@@H](C)CC)[C@@H](C)CC)C(=O)NCC(=O)N[C@@H](Cc1ccc(O)cc1)C(=O)N[C@@H](CO)C(=O)N[C@@H](Cc1ccccc1)C(=O)N[C@H](C(=O)O)[C@@H](C)O [Peptide 22, Glu-Ile-Leu-Ile-Phe-Trp-Ser-Lys-Ala-Ile-Gly-Tyr-Ser-Phe-Thr] (H-EILIFWSKAIGYSFT-OH; N-terminus and C-terminus assumed) | large decrease in inhibition capacity | 3 ± 0.6 | 5.5 ± 1.5 | –
CC[C@H](C)[C@H](NC(=O)[C@H](CCC(=O)O)NC(=O)[C@H](CCCCN)NC(=O)[C@H](CO)NC(=O)[C@H](Cc1c[nH]c2ccccc12)NC(=O)[C@H](Cc1ccccc1)NC(=O)[C@@H](NC(=O)[C@H](CC(C)C)NC(=O)[C@@H](NC(=O)[C@@H](N)CCC(=O)O)[C@@H](C)CC)[C@@H](C)CC)C(=O)NCC(=O)N[C@@H](Cc1ccc(O)cc1)C(=O)N[C@@H](CO)C(=O)N[C@@H](Cc1ccccc1)C(=O)N[C@H](C(=O)O)[C@@H](C)O [Peptide 23, Glu-Ile-Leu-Ile-Phe-Trp-Ser-Lys-Glu-Ile-Gly-Tyr-Ser-Phe-Thr] (H-EILIFWSKEIGYSFT-OH; N-terminus and C-terminus assumed) | small decrease in inhibitory activity | – | 0.85 ± 0.25 | –

From US6528618B1, “Anti-inflammatory peptides derived from C-reactive protein” (Yeda Research and Development Co. Ltd., priority 1997, dated 2003)
